PubChem BioAssay (NCI)
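Test compounds were applied to cells in 96-well plates for 48 hours at 5 doses. GI50 is the concentration that inhibits growth by half. TGI denotes the concentration required for complete inhibition of growth.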

Columns and labels:
Assay in all cases: NCI anticancer screen, dose series, 48 h
[1] = test system: A498 renal
[2] = test system: HOP-62 NSCLC
[3] = test system: SK-MEL-28 melanoma
[4] = test system: SK-MEL-2 melanoma
[5] = test system: OVCAR-3 ovarian
[6] = test system: LOX IMVI melanoma
[7] = test system: MDA-MB-435
[8] = test system: SR leukemia
[9] = test system: HCC-2998 colon
[10] = test system: MDA-N
[11] = test system: OVCAR-8 ovarian

SMILES | TGI [1] [µM] | TGI [2] [µM] | TGI [3] [µM] | TGI [4] [µM] | TGI [5] [µM] | TGI [6] [µM] | TGI [7] [µM] | TGI [8] [µM] | TGI [9] [µM] | TGI [10] [µM] | TGI [11] [µM] | GI50 [1] [µM] | GI50 [9] [µM]
N=c1oc2ccc([N+](=O)[O-])cc2cc1C(=O)Nc1ccccn1 | > 100 | > 100 | > 100 | 43.4 | 65.8 | > 100 | > 100 | > 100 | > 100 | > 100 | > 100 | – | –
O=CN(O)CC(=O)O.[Ni] | > 100 | > 100 | > 100 | – | > 100 | > 100 | > 100 | > 100 | > 100 | > 100 | > 100 | – | –
CCOC(=O)CCC(NC(=O)c1ccc(OCc2ccc3nc(OC)c(OC)nc3c2)cc1)C(=O)OCC (stereo not drawn) | > 100 | > 100 | > 100 | 74.6 | 49.9 | > 100 | 91.1 | > 100 | > 100 | > 100 | > 100 | – | –
Cc1cc(O)c2c(c1)C(=O)C=C(Br)C2=O | 38.2 | > 100 | 29.7 | 31.2 | 30.6 | 25.4 | 27.6 | 42 | > 58.1 | 28.7 | 42.3 | – | –
CC(C)(C)C(=O)CC(=O)C(F)(F)C(F)(F)C(F)(F)F.CC(C)(C)C(=O)CC(=O)C(F)(F)C(F)(F)C(F)(F)F.CC(C)(C)C(=O)CC(=O)C(F)(F)C(F)(F)C(F)(F)F.[Er] | > 100 | > 100 | > 100 | – | > 100 | > 100 | > 100 | > 100 | > 100 | > 100 | > 100 | > 100 | 43.5
O=[N+]([O-])c1ccc(OP(=O)(O)OCC2OC(CP(=O)(O)O)C(O)C2O)cc1 (stereo not drawn) | > 100 | > 100 | > 100 | > 100 | > 100 | > 100 | > 100 | > 100 | > 100 | > 100 | > 100 | – | –
CSc1ncc2c(C#N)c3ccccn3c(=O)c2n1 | > 100 | > 100 | > 100 | > 100 | > 100 | > 100 | > 100 | > 100 | > 100 | > 100 | > 100 | – | –
CCn1c(SCC(=O)NNC(=S)Nc2ccc(Cl)cc2)nc2ccccc2c1=O | 98.3 | > 100 | > 100 | > 100 | > 100 | > 100 | > 100 | > 100 | > 100 | > 100 | > 100 | – | –
C[As](C)SCC(NC(=O)CCC(N)C(=O)O)C(=O)NCC(=O)O.Cl.c1ccncc1 (stereo not drawn) | 3.44 | 5.64 | 2.01 | 1.67 | 0.412 | 1.02 | 1.07 | 0.076 | 0.813 | 1.51 | 0.679 | – | –
CC(=O)OCC1=C2C(OC(=O)C(C)C)CC3(COC(C)=O)OC3/C=C\C3(C)OC3C2OC1=O (stereo not drawn) | > 100 | > 100 | > 100 | > 100 | > 100 | > 100 | > 100 | > 100 | > 100 | > 100 | > 100 | – | –
CN(C)C=NCc1ccc2c(c1)OCO2 | > 100 | > 100 | > 100 | > 100 | > 100 | > 100 | > 100 | > 100 | > 100 | > 100 | > 100 | – | –
COC(=O)C(=O)c1cc2ccccc2n1S(=O)(=O)c1ccccc1 | > 100 | > 100 | > 100 | > 100 | > 100 | > 100 | > 100 | > 100 | > 100 | > 100 | > 100 | – | –
Nc1nc(Cl)cc(NCC2(CO)CC(c3ccccc3)C2)n1 (stereo not drawn) | > 100 | > 100 | > 100 | > 100 | > 100 | > 100 | > 100 | > 100 | – | > 100 | > 100 | – | –
CSC1=N/C(=C\c2ccccc2)C(=O)N1CN1CCOCC1 | > 100 | > 100 | > 100 | > 100 | > 100 | > 100 | > 100 | > 100 | – | > 100 | > 100 | – | –
CCSC1=C(C#N)C2(CCCCC2)C2=C(CC(C)(C)CC2=O)N1 | 64.6 | – | > 100 | > 100 | – | > 100 | > 100 | > 100 | > 100 | > 100 | > 100 | – | –
C=CCC1(O)C(=O)OC2C(O)COC21O (stereo not drawn) | > 100 | > 100 | > 100 | > 100 | > 100 | > 100 | > 100 | > 100 | > 100 | > 100 | > 100 | – | –
Cc1cc(O)c2cc3c(O)c(O)ccc3cc2c1 | 16.1 | 10.3 | > 58.8 | 3.22 | 6.04 | > 42.3 | 22.8 | 3.25 | 16.4 | 8.86 | 11.2 | – | –
